Measurements taken from BindingDB's records for doi:10.1038/nchembio.2007.34 (GlaxoSmithKline, 2007).

Target: T1, Kinesin-like protein KIF11 (Homo sapiens, UniProt P52732)
T1 sequence (P52732 whole entry): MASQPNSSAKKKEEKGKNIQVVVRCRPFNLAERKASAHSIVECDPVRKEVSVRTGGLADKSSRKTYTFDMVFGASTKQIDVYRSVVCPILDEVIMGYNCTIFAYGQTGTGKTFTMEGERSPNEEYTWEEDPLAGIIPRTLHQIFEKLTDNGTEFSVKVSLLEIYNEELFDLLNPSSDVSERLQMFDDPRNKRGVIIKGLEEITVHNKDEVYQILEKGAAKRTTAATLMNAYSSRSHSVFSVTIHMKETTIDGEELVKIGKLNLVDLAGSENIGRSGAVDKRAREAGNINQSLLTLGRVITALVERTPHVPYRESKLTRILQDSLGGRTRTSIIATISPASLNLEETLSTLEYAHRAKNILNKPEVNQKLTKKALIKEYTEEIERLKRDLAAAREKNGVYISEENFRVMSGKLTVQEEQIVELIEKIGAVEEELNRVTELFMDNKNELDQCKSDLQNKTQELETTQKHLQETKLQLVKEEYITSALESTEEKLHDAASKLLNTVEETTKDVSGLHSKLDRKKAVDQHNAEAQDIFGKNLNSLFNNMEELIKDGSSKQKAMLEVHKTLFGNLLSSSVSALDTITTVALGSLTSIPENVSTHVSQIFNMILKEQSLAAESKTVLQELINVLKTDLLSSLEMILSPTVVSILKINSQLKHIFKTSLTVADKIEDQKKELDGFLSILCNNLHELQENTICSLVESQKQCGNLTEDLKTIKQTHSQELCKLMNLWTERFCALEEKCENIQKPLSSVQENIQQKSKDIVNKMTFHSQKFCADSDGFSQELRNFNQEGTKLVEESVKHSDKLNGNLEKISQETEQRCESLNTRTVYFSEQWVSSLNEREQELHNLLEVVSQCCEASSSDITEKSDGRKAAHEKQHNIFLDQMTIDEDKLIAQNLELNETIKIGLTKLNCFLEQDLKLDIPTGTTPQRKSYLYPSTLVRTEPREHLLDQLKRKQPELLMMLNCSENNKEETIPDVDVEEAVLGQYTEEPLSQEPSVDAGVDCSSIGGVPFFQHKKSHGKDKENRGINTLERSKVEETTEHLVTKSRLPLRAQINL
Experiment: Wild-type HCT116
Conditions: pH 6.8
Description: Cell proliferation assay for wild-type cells

- Ki: 1.7 nM
SMILES: O=C1CCc2cc(-c3ccc(C(F)(F)F)cc3)ccc2N1 [6-[4-(Trifluoromethyl)phenyl]-3,4-dihydro-2(1H)-quinolinone]
